Where two headings read alike, the source gives them in different places.
Key:
PC-3 cells [1] = assay: XTT cell proliferation (cell viability) assay in PC-3 cells; format: cell-based; settings: Homo sapiens, mean±S.E.M., read-out: IC50 (anti-proliferative activity, XTT)
Procedure: (§1) Cell Line and Culture Conditions • Human metastatic, androgen insensitive prostate cancer cells, PC-3, were obtained from ATCC (Manassas, Va., USA). Cells were grown in F-12K medium supplemented with 2 mM glutamine, 10% FBS, 100 U/mL penicillin, and 100 μg/mL streptomycin. PC-3 cells were maintained in a humidified atmosphere of 5% CO2 at 37° C. in T-75 flasks and were subcultured when confluent.
The anti-proliferative effect of carvacrol was assessed in PC-3 cells using the XTT cell proliferation assay. This assay is a colorimetric assay that is used to measure cell growth and drug sensitivity in tumor cell lines by measuring the internal environment of the proliferating cell, which is more reduced than that of non-proliferating cells. In this assay, the second generation tetrazolium dye, XTT (2,3-bis(2-methoxy-4-nitro-5-sulfophenyl)-5-[(phenylamino)-carbonyl]-2H tetrazolium hydroxide), is reduced to a soluble, brightly orange colored formazan derivative. To improve the sensitivity of XTT assay, PMS (N-methyl dibenzopyrazine methyl sulfate), an intermediate electron carrier is used. This color change is accomplished by breaking apart the positively charged quaternary tetrazole ring. An expansion in the number of viable cells results in an increase in the overall activity of mitochondrial dehydrogenases in the sample. […]
PC-3 cells at a density of 10^4 cells/well were seeded into flat-bottom, 96-well microtiter plates (100 μL/well) and allowed to attach and grow for 24 h. […] After incubation, an orange colored formazan product was formed and the absorbance was measured at 475 nm using BioTek microplate reader. […] Cell viability of the drug-treated cells was calculated as a fraction of solvent control and the anti-proliferative activity of carvacrol was expressed in terms of IC50 values. IC50 values were calculated using GraphPad Prism 4 (Graph Pad Software Inc., Calif., USA), and expressed as the means±S.E.M. of n≧3 experiments (each in triplicate).

LNCaP cells = assay: DNA fragmentation assay (Apoptotic DNA-Ladder Kit) in LNCaP cells; format: cell-based, Human; settings: 10 μM and 1000 μM, 48 hours
Procedure: Human metastatic prostate cancer cells, LNCaP, were obtained from ATCC (Manassas, Va., USA). Cells were grown in RPMI-1640 medium supplemented with 2mM glutamine, 10% FBS, 100 U/mL penicillin, and 100 μg/mL streptomycin. LNCaP cells were maintained in a humidified atmosphere of 5% CO2 at 37° C. in T-75 flasks and were subcultured when confluent. Experiments were conducted using cells with passage numbers ranging from 5-20.
During apoptosis, pro-apoptotic proteins such as apoptosis-inducing factor (AIF), endonuclease G, and caspase-activated DNase (CAD) are released from the mitochondria, which occur after the cell has committed to die. AIF, after translocation to the nucleus, causes DNA fragmentation (˜50-300 kb pieces) and peripheral nuclear chromatin condensation which is referred to as “stage 1” condensation. Endonuclease G also cleaves nuclear chromatin to produce oligonucleosomal DNA fragments following its translocation to the nucleus. Both, AIF and endonuclease G function in caspase-independent manner. CAD subsequently released from mitochondria, after getting cleaved by activated caspase-3, is known to translocate into the nucleus leading to oligonucleosomal cleavage of DNA into 180 by fragments and a more pronounced chromatin condensation referred to as “stage 11” condensation.
This cleaved DNA is easily observed as a “ladder” upon analysis by gel electrophoresis. […]

PC-3 cells [2] = assay: Morphological analysis of PC-3 cells; format: cell-based, Human; settings: 10 μM and 1000 μM, 48 h
Procedure: as §1
These typical features of apoptosis were used to evaluate the mechanism of decreased cell proliferation by carvacrol in PC-3 cells.
In order to identify the morphological changes in PC-3 cells after treatment with carvacrol, 2×10^6 cells/well were seeded in flat-bottom, 6-well microtiter plates, allowed to grow for 24 h, then treated with 10 μM and 1000 μM of carvacrol, and incubated further for 48 h at 37° C. After incubation, cells were washed twice with PBS, and microscopic photographs of morphological changes of the cells were captured using a fluorescent microscope, Axiovert 200M (Carl Zeiss MicroImaging Inc, NY, USA). 1.15% EtOH was used as a solvent control.

PC-3 cells [3] = assay: Phosphatidylserine externalization by fluorescence microscopy (PSVue 480) in PC-3 cells; format: cell-based, Human; settings: 10 μM and 1000 μM, 48 hours, dose-dependent
Procedure: as §1
One of the earliest events to occur in apoptosis or programmed cell death is externalization of phosphatidylserine (PS), a membrane phospholipid restricted to the inner leaflet of the lipid bilayer. Redistribution of PS from inner leaflet of plasma membrane lipid bilayer to the outer leaflet occurs in cells undergoing apoptosis. The PSVue™ 480 reagent kit was used to perform the phosphatidylserine (PS) externalization assay. The principle behind this assay involves a strong binding of PSVue™ 480 (fluorescent probe) to the anionic PS residues exposed on the surface of apoptotic cells by its Zn (II)-dipicolylamine (Zn-DPA) functionality, making it a useful apoptotic sensor.
To detect PS externalization, PC-3 cells were seeded at a density of 0.5×10^6 cells/well in flat-bottom, 6-well microtiter plates and were allowed to incubate for 24 h. After 24 h of incubation at 37° C., cells were treated with 10 μM and 1000 μM of carvacrol for 48 h. […]

Cc1ccc(C(C)C)cc1O [Carvacrol]
IC50 (PC-3 cells [1]; 24 hr treatment): 2250 ± 79.8 µM
IC50 (PC-3 cells [1]; 48 hr treatment): 1400 ± 98.2 µM
IC50 (PC-3 cells [1]; 96 hr treatment): 1010 ± 63.5 µM
fragmentation of DNA (LNCaP cells): Fragmentation of DNA was observed
morphological changes (features of apoptosis) (PC-3 cells [2]): exhibited typical features of apoptosis like rounding of cells, membrane blebbing, and cell shrinkage
externalization of phosphatidylserine residues (PSVue 480 positive cells) (PC-3 cells [3]): showed externalization of phosphatidylserine residues
